How the values were obtained:
[1] = mouse, in vivo
Method: (§1) FIG. 1 depicts the novel small molecule inhibitor, WP1066, that inhibits Stat-3 activity and has significant central nervous system (CNS) and glioma tumor penetration in vitro and in vivo. FIG. 1A provides the chemical structure of WP1066. […] WP1066 was injected intraperitoneally (IP) at doses of 100 mg/kg every other day for two weeks in nude mice. Specifically, plasma, CNS tissue, and U87-MG flank tumors were harvested and, after extraction, were analyzed for WP1066 content using tandem liquid chromatography/mass spectrometry. […] Cells were stained with fluorescently-labeled anti-CD3 and anti-CD11b antibodies, and propidium iodide (PI) and analyzed by flow cytometry. Macrophages and T cells were gated on CD11b^+ and CD3^+ populations, respectively, and cell death (%) was quantified as CD11b^+PI^+ or CD3^+PI^+ populations in the respective plots. Plots represent the 5 μM maximum dose (clear histogram) compared to control untreated cells (shaded histogram) incubated under similar conditions.

[2] = Plasma concentration after oral administration; format: in vivo; conditions: mice
Text: Patients with malignant human gliomas have a preponderance of immunosuppressive cytokines, a lack of effector/activated T cells, enhanced regulatory T cells (Tregs), and inadequate antigen-presentation functional activity, contributing to their profound immunosuppression. Known immune stimulators within these patients are insufficient to overcome these influences. Therefore, we investigated whether a pharmacological derivative of the natural compound, caffeic acid (WP1066)(FIG. 1A), a small molecule inhibitor of Stat-3 activity, can (in physiologically relevant doses) attenuate these suppressed immune responses.

Stat-3 = biological target: T1, Stat-3 (Homo sapiens, UniProt P40763); test: Phosphorylated Stat-3 by intracellular staining and flow cytometry in PBMCs; format: cell-based; conditions: doses achievable in vivo (1 nM-5 μM)
T1 construct: normal donor peripheral blood mononuclear cells (PBMCs) were assessed for phosphorylated Stat-3 activity; endogenous in cells; host or cells: normal donor peripheral blood mononuclear cells (PBMCs)
T1 sequence (P40763 whole entry): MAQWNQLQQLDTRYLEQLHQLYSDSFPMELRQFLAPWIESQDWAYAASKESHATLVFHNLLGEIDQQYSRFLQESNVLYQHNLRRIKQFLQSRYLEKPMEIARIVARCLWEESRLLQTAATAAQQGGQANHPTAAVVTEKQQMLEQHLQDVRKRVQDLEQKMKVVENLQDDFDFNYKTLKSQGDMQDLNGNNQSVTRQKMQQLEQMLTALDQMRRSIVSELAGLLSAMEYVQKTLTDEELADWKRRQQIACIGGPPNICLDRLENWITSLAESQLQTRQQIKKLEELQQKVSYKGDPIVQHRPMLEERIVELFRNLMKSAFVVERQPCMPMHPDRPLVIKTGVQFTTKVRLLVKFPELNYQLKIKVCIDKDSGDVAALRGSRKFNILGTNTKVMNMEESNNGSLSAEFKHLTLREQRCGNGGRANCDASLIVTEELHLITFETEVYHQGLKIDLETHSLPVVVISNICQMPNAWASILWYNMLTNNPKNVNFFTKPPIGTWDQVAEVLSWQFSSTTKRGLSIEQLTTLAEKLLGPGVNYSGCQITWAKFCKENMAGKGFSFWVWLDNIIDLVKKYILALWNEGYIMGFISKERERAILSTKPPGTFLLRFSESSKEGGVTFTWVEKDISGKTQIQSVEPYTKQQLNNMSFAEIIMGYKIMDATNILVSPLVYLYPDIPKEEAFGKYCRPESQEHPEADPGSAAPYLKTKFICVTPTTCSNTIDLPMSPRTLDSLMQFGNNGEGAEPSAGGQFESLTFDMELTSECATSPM

normal donor PBMCs = test: Cell death (propidium iodide) of macrophages and T cells in PBMCs; format: cell-based, human; conditions: 1 nM-5 μM, 2 and 4 hours
Method: as §1

CD80 and CD86 [3] = test: Costimulatory molecule expression (CD80, CD86) by flow cytometry; format: cell-based, human
Method: (§2) PBMCs from normal human donors (n=5) were incubated for 24 hrs at 37° C., 5% CO2, in either medium (RPMI 1640+10% fetal bovine serum) or medium supplemented with 5 μM WP1066. Cells were then stained with fluorescent antibodies to CD11b and either CD80 or CD86 and analyzed by flow cytometry. Glioma-infiltrating microglia were purified from freshly resected GBM patient tumor tissue (n=3) and incubated in either medium or medium supplemented with WP1066 (1 μM). After incubation, microglia (CD11b^+/CD45^+) were double stained with fluorescent antibodies to CD11b and either CD80 or CD86, and analyzed by flow cytometry. Numbers in the upper right quadrant of each graph denote the percentage of CD11b^+ gated cells that express either CD80 or CD86. […] Cells were then labeled with CD11b/CD14 macrophage markers and stained and analyzed for intracellular cytokine production. Percentages of macrophages that were CD11b^+/CD14^+ and also positive for the respective cytokine were calculated by flow cytometry analysis. A scatter plot representative of all samples analyzed for macrophage intracellular cytokine production was determined with LPS-treated cells (circles) and WP1066-treated cells (diamonds). The black bars denote the mean values of each subgroup, p values determining statistical significance between LPS-stimulated groups and WP1066-stimulated groups were determined using Student's t test (NS, not statistically significant). […] Carboxyfluoroscein succinimidyl ester (CFSE)-labeled CD8^+ T cells isolated from newly diagnosed GBM patients were incubated with untreated autologous APCs (CD11b^+/CD14^+) and anti-CD3 antibody, with anti-CD3 antibody+anti-CD28 antibody, and with LPS-treated (5 μg/mL) autologous APCs or WP1066-treated (1 μM) autologous APCs. In all cases, cells were incubated for 4 days at 37° C., 5% CO2, followed by surface staining for T cell markers (CD3, CD8) and analysis by flow cytometry. […] Purity of all cell populations was determined to be at least 97% by flow cytometry. […]

macrophages = test: Macrophage intracellular cytokine production by flow cytometry; format: cell-based, human; conditions: 4 hrs
Method: PBMCs from normal human donors (n=5) were incubated for 24 hrs at 37° C., 5% CO2, in either medium (RPMI 1640+10% fetal bovine serum) or medium supplemented with 5 μM WP1066. Cells were then stained with fluorescent antibodies to CD11b and either CD80 or CD86 and analyzed by flow cytometry. Glioma-infiltrating microglia were purified from freshly resected GBM patient tumor tissue (n=3) and incubated in either medium or medium supplemented with WP1066 (1 μM). After incubation, microglia (CD11b^+/CD45^+) were double stained with fluorescent antibodies to CD11b and either CD80 or CD86, and analyzed by flow cytometry. Numbers in the upper right quadrant of each graph denote the percentage of CD11b^+ gated cells that express either CD80 or CD86. […] Cells were then labeled with CD11b/CD14 macrophage markers and stained and analyzed for intracellular cytokine production. Percentages of macrophages that were CD11b^+/CD14^+ and also positive for the respective cytokine were calculated by flow cytometry analysis. A scatter plot representative of all samples analyzed for macrophage intracellular cytokine production was determined with LPS-treated cells (circles) and WP1066-treated cells (diamonds). The black bars denote the mean values of each subgroup, p values determining statistical significance between LPS-stimulated groups and WP1066-stimulated groups were determined using Student's t test (NS, not statistically significant). […] Carboxyfluoroscein succinimidyl ester (CFSE)-labeled CD8^+ T cells isolated from newly diagnosed GBM patients were incubated with untreated autologous APCs (CD11b^+/CD14^+) and anti-CD3 antibody, with anti-CD3 antibody+anti-CD28 antibody, and with LPS-treated (5 μg/mL) autologous APCs or WP1066-treated (1 μM) autologous APCs. In all cases, cells were incubated for 4 days at 37° C., 5% CO2, followed by surface staining for T cell markers (CD3, CD8) and analysis by flow cytometry. The number on each plot indicates the percentage of CD8^+ gated cells that have undergone cell division via CFSE dilution. […] For (A-C), modified Percoll density gradient (1.083 g/mL) centrifugation was used to isolate PBMCs of both GBM patients and normal donors. CD8+ T cells were isolated by magnetic bead separation and then labeled with CFSE. Autologous APCs were purified from the above density gradient buffy-coat layer by negative selection, using a monocyte bead isolation kit and magnetic separation column. Purity of all cell populations was determined to be at least 97% by flow cytometry. Autologous microglia/macrophages from GBM patients were purified from freshly resected human glioma/brain tissue using a modified Percoll gradient isolation technique. All APCs were treated with the respective stimulants (control medium alone, LPS, or WP1066) for 24 hours and then washed prior to incubation with T cells in the proliferation assay. […] T cells from the same patients were isolated with human CD3 microbeads and a magnetic separation column, with the exception of one patient who lacked sufficient PBMCs for both monocyte and T cell isolations. Monocytes or T cells seeded at a density of 1×10^6 cells per well in 6-well culture plates and were incubated at 37° C., 5% CO2, with either the medium or medium supplemented with 5 μM WP1066. After 2 hours, monocytes and T cells were stimulated for 5 minutes with 2 μg/mL LPS and 5 μg/mL anti-CD3 antibody, respectively, in the presence or absence of WP1066. […]

[4] = system: T cells isolated from peripheral blood of GBM patients; test: T cell proliferation (CFSE dilution) with treated antigen-presenting cells; format: cell-based, human; conditions: GBM patient T cells with treated macrophages/APCs; WP1066 1 μM, LPS 5 μg/mL, 4 days
Method: PBMCs from normal human donors (n=5) were incubated for 24 hrs at 37° C., 5% CO2, in either medium (RPMI 1640+10% fetal bovine serum) or medium supplemented with 5 μM WP1066. Cells were then stained with fluorescent antibodies to CD11b and either CD80 or CD86 and analyzed by flow cytometry. Glioma-infiltrating microglia were purified from freshly resected GBM patient tumor tissue (n=3) and incubated in either medium or medium supplemented with WP1066 (1 μM). After incubation, microglia (CD11b^+/CD45^+) were double stained with fluorescent antibodies to CD11b and either CD80 or CD86, and analyzed by flow cytometry. […] Cells were then labeled with CD11b/CD14 macrophage markers and stained and analyzed for intracellular cytokine production. Percentages of macrophages that were CD11b^+/CD14^+ and also positive for the respective cytokine were calculated by flow cytometry analysis. A scatter plot representative of all samples analyzed for macrophage intracellular cytokine production was determined with LPS-treated cells (circles) and WP1066-treated cells (diamonds). The black bars denote the mean values of each subgroup, p values determining statistical significance between LPS-stimulated groups and WP1066-stimulated groups were determined using Student's t test (NS, not statistically significant). […] Purity of all cell populations was determined to be at least 97% by flow cytometry. […]

[5] = system: monocytes isolated from GBM patients; test: Immunoblotting of signaling proteins in GBM patient monocytes; format: cell-based, human; conditions: 5 μM
Method: (§3) To determine how WP1066 induces these potent immune responses, T cells and monocytes isolated from GBM patients were treated with WP1066 and subsequently lysed and analyzed by immunoblotting for critical signaling proteins. […] The tyrosine phosphorylation of Syk initiates downstream signaling events during human monocyte activation, whereas the phosphorylation of Tyr319 in Zap-70 plays a critical role in mediating T cell activation via signaling through the T cell receptor. Raeder, E. M. et al. J Immunol 163, 6785-93 (1999); Williams, B. L. et al. EMBO 18, 1832-1844 (1999). Both Syk and ZAP-70 can be phosphorylated through autophosphorylation and transphosphorylation. […] The tyrosine phosphorylation of critical signaling proteins induced/enhanced by WP1066 are likely pivotal to the WP1066-induced restoration of immune function in GBM patients and explains the mechanisms of potent immune activation.
as §2, with “APCs.” for “APCs. In all cases, cells were incubated for 4 days at 37° C., 5% CO2, followed by surface staining for T cell markers (CD3, CD8) and analysis by flow cytometry.”

T cells = test: Immunoblotting of signaling proteins in GBM patient T cells; format: cell-based, human; conditions: 5 μM
Method: as §3
PBMCs from normal human donors (n=5) were incubated for 24 hrs at 37° C., 5% CO2, in either medium (RPMI 1640+10% fetal bovine serum) or medium supplemented with 5 μM WP1066. Cells were then stained with fluorescent antibodies to CD11b and either CD80 or CD86 and analyzed by flow cytometry. […] After incubation, microglia (CD11b^+/CD45^+) were double stained with fluorescent antibodies to CD11b and either CD80 or CD86, and analyzed by flow cytometry. […] Cells were then labeled with CD11b/CD14 macrophage markers and stained and analyzed for intracellular cytokine production. Percentages of macrophages that were CD11b^+/CD14^+ and also positive for the respective cytokine were calculated by flow cytometry analysis. A scatter plot representative of all samples analyzed for macrophage intracellular cytokine production was determined with LPS-treated cells (circles) and WP1066-treated cells (diamonds). The black bars denote the mean values of each subgroup, p values determining statistical significance between LPS-stimulated groups and WP1066-stimulated groups were determined using Student's t test (NS, not statistically significant). […]

intracerebral B16 cells = test: Survival of C57BL/6J mice with established intracerebral tumors; format: in vivo
intracerebral B16 = test: Survival of nude mice with established intracerebral B16; format: in vivo
Foxp3 = test: Intracellular Foxp3 expression in iTreg differentiation and natural Tregs by flow cytometry; format: cell-based, C57BL/6J mice; conditions: 0, 0.1 and 1 μM, more than 96 hours
Method: CD4+CD25−CD62L^hi naïve T cells from C57BL/6J mice were stimulated by plate-bound anti-CD3 (2 μg/ml) and soluble anti-CD28 (2 μg/ml) antibodiesin the presence of TGF-β1 (1 ng/ml) plus hIL-2 (200 U/ml) with addition of different concentrations of WP1066 (0, 0.1, and 1 μM) for inducible Treg (iTreg) differentiation; CD4+CD25+ T cells (natural Tregs [nTreg]) were stimulated by plate-bound anti-CD3 (2 μg/ml) antibodies in the presence of hIL-2 (200 U/ml) with addition of different concentrations of WP1066 (0, 0.1, and 1 μM). More than 96 hours after stimulation, the cells were analyzed for intracellular Foxp3 expression using flow cytometry.

[6] = system: tumor cell types, including malignant gliomas; conditions: variety of tumor cell types; cited from earlier work
CD80 and CD86 [7] = conditions: cited from earlier work
[8] = normal donors and GBM patients, 5 μM

For `C[C@H](NC(=O)/C(C#N)=C/c1cccc(Br)n1)c1ccccc1` [WP1066], the “uptake of the compound by tumors versus other tissue” value [1] was “higher drug content than any other tissue”, the “central nervous system (CNS) concentrations” value ([1]; nude) was 0.185 µM and the concentrations in tumor ([1]; nude) was 1.07 µM. The “concentrations per gram of tumor” value ([1]; nude) was 362 μg/gram, the “concentrations within orthotopic gliomas” value ([1]; nude) was 1.07 µM and the plasma concentrations [2] was over 2 µM. For the same compound, the “inhibition of Stat-3 within immune cells” value (Stat-3) was “inhibit Stat-3”, the cell viability (normal donor PBMCs) was “not compromised” and the “CD80 and CD86 on tumor-infiltrating microglia/macrophages from GBM patients” value (CD80 and CD86 [3]; 1 μM) was “capable of upregulating CD80 and CD86”. For the same compound, the “CD80 and CD86 on normal donor PBMCs” value (CD80 and CD86 [3]; 5 μM, 24 hrs) was “capable of upregulating CD80 and CD86”, the “up regulation of costimulation in human monocytes” value (CD80 and CD86 [3]; incubated with IL-10 and TGF-β (data not shown)) was “can be achieved” and the “IL-2 induction from macrophages” value (macrophages; [8]) was “induce”. The “IL-4 induction from macrophages” value (macrophages; [8]) was “induce”, the “IL-12 induction from macrophages” value (macrophages; [8]) was “induce” and the “IL-15 induction from macrophages” value (macrophages; [8]) was “induce”. For the same compound, the T cell proliferation [4] was “potently induced T cell proliferation”, the “tyrosine phosphorylation in monocytes and T cells” value ([5]; proteins of 70 to 75 KDa and 50 to 60 KDa, also T cells) was “induced or enhanced” and the “levels of p57/p59-Hck” value ([5]; monocytes) was “increased”. For the same compound, the “phospho-p72Syk (Tyr352)” value ([5]; monocytes) was “induced”, the “total protein level of Syk” value ([5]; monocytes) was “didn't affect” and the “levels of p56-Lck” value (T cells) was “increased”. For the same compound, the “phospho-ZAP-70 (Tyr319)” value (T cells) was “induced”, the “total protein level of ZAP-70” value (T cells) was “markedly decreased” and the “immunological memory on rechallenge” value (intracerebral B16 cells; animals surviving longer than 78 days, tumor cells into contralateral hemisphere) was “minimal immunological memory was induced”. For the same compound, the “anti-tumor efficacy (survival)” value (intracerebral B16 cells; established intracerebral B16 cells, oral gavage, compared with B16EGFRvIII model) was “Identical anti-tumor efficacy”, the “efficacy after in vivo depletions of CD4+ and CD8+ T cells” value (intracerebral B16 cells; established intracerebral syngeneic murine models) was “abrogates the efficacy” and the “clinical effectiveness (survival) in immune incompetent background” value (intracerebral B16) was “abrogates the clinical effectiveness”. The “Foxp3 expression in natural Tregs” value (Foxp3) was “downregulates Foxp3 expression”, the “Foxp3 induction in peripheral T cells” value (Foxp3; iTreg differentiation) was “inhibits Foxp3 induction” and the proapoptotic activity [6] was “proapoptotic activity”.
For “lipopolysaccharide [LPS, reference compound]”, the “IL-1β levels compared with WP1066” value (macrophages; LPS 5 μg/mL) is given as “significantly higher levels”, the T cell proliferation [4] is given as “unable to induce any T cell proliferation” and the “up regulating costimulatory molecules on microglia isolated directly from GBM patients” value (CD80 and CD86 [7]) is given as “totally insufficient”.

— US20100144802A1, “Small Molecule Inhibitors for Immune Modulation” (priority 2007, published 2010)
